Assay results: publication PMC12464334, “Reprogramming of cancer metabolism via photoresponsive nano-PROTAC enhances pyroptosis-mediated immunotherapy” (Signal Transduction and Targeted Therapy, 2025)
Like-named read-outs stand apart in the source and are kept apart here.

How the values were obtained:
HK2 = target: T1, HK2 (Mus musculus, UniProt O08528); test: TPD analysis: intracellular HK2 level; type: cell-based, murine; conditions: for time-dependent HK2 expression after washout: TNBC cells, 1 µM, 12 h treatment then washout, n = 3
T1 construct: endogenous in cells; host or cells: 4T1 cells
T1 sequence (O08528 1-917): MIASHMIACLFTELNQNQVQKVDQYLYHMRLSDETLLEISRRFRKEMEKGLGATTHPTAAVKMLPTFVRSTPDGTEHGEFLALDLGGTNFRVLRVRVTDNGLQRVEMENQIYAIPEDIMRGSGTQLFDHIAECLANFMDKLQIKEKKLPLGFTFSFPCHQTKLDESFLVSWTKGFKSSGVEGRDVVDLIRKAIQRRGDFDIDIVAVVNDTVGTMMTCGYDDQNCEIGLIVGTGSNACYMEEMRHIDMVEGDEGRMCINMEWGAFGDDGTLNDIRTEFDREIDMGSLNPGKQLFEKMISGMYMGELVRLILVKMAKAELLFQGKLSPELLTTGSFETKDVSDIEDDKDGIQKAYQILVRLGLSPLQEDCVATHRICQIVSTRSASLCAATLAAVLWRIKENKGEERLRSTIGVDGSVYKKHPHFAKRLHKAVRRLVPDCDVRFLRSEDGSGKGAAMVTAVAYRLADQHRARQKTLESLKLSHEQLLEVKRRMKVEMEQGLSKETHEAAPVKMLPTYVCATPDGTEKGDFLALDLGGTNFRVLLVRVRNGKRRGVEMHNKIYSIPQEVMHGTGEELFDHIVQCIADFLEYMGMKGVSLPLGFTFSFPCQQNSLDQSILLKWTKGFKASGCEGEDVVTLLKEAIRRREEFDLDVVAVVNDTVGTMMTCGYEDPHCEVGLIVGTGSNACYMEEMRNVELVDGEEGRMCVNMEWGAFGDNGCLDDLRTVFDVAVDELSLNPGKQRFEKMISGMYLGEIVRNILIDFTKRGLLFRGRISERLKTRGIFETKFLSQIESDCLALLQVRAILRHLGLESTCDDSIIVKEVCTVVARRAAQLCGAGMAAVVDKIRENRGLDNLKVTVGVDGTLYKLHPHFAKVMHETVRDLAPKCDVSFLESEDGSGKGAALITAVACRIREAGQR

[1] = ROS generation, DPBF bleaching assay under 671 nm laser; type: physicochemical; conditions: 671 nm laser 40 mW, calculated relative to VPF, n = 5
Experimental: The morphology in distilled water was observed via transmission electron microscopy (TEM; Philips). UV‒vis and fluorescence spectra were measured via a UV‒vis spectrometer (Agilent Technologies) and a fluorescence spectrometer (Hitachi), respectively. ROS generation was quantified via a bleaching assay using 1,3-diphenylisobenzofuran (DPBF; Cat. No. 105481; Sigma Aldrich).
(§1) AVPF and ANanoTAC represent the absorbance at the excitation wavelength (671 nm), whereas SVPF and SNanoTAC denote the slopes of the absorbance intensity over time. […] The resulting data were plotted, and kcat/KM was determined via Prism 10 software (GraphPad).

Cat-L = target: T2, Cat-L (Homo sapiens, UniProt P07711); test: Enzymatic cleavage by Cat-L; type: biochemical; conditions: pH 5.5 MES buffer, 37 °C, LC/MS
T2 construct: purchased R&D Systems 952-CY
Experimental: as §1, with “The cleavage rate of each sample was calculated by comparing the peak area to that of an equivalent amount of NanoTAC prior to enzyme incubation. The” for “The”

rechallenged 4T1 TNBC = conditions: day 15 after tumor rechallenge, ELISA, n = 3
Experimental: Sixteen days post-treatment, TNBC mice were inoculated with 4T1 cells (2 × 10^5 cells per mouse) into the fourth mammary fat pad opposite the primary TNBC site. Rechallenged tumor volumes were measured every 2 days. Fifteen days after tumor rechallenge, the population of splenic Tem cells (CD3^+; CD8^+; CD44^+ [Cat. No. 103016, Biolegend]; CD62L^low [Cat. No. 104407, Biolegend]) was analyzed via flow cytometry. Finally, the serum levels of IFN-γ, IL-6, and TNF-α were quantified via ELISA.

[2] = test system: orthotopic 4T1 TNBC tumor; test: Tumor inhibition in orthotopic TNBC mouse model; type: in vivo; conditions: for complete regression (CR), mice with CR / mice in group: i.v. equivalent 5 mg/kg VPF, n = 5
Experimental: BL imaging was conducted every 4 days following the intraperitoneal injection of D-luciferin. The tumor volumes and body weights were measured every 2 days. Mice with tumor volumes exceeding 500 mm^3 were considered deceased.

4T1 cells [3] = conditions: without photoirradiation, absence (migration) or presence (invasion) of collagen, n = 5
4T1 cells [4] = test: Intracellular ROS generation (DCFH-DA); type: cell-based, murine; conditions: 1 μM, 12 h, +L (40 mW, 500 s), hypoxia 1% O2, DCFH-DA
Experimental: Diacetyldichlorofluorescein (DCFH-DA; Cat. No. 4091-99-0, Sigma Aldrich) was used to detect intracellular ROS. […] The cells were then incubated with DCFH-DA for 30 min and subsequently exposed to photoirradiation for 500 s at a power of 40 mW. NIRF images were captured via CLSM.

caspase-3 (CASP3) = target: T3, caspase-3 (CASP3) (Homo sapiens, UniProt P42574); test: Enzymatic cleavage by caspase-3; type: biochemical; conditions: pH 5.5 MES buffer, 37 °C, LC/MS
T3 construct: purchased R&D Systems 707-C3/CF
T3 sequence (P42574 29-175 limits assumed): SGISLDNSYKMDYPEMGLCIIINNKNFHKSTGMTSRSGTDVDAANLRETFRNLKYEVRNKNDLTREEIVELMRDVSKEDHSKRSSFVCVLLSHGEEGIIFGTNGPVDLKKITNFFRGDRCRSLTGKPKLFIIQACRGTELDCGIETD
T3 sequence (P42574 176-277 limits assumed): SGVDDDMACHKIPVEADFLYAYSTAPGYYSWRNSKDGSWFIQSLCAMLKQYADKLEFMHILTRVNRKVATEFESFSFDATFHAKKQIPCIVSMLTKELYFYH
Experimental: as §1, with “The cleavage rate of each sample was calculated by comparing the peak area to that of an equivalent amount of NanoTAC prior to enzyme incubation. The” for “The”

[5] = target: T4, matrix metalloproteinase-9 (MMP-9) (Homo sapiens, UniProt P14780); test: Enzymatic cleavage by MMP-9; type: biochemical; conditions: pH 5.5 MES buffer, 37 °C, LC/MS
T4 construct: purchased R&D Systems 911-MP
Experimental: as §1, with “The cleavage rate of each sample was calculated by comparing the peak area to that of an equivalent amount of NanoTAC prior to enzyme incubation. The” for “The”

[6] = test system: orthotopic 4T1 TNBC tumor; conditions: tumors on day 3, flow cytometry, n = 5
Experimental: Following treatment of the TNBC mouse model described above, tumor tissues were collected on day 3 for immune cell population analyses. Single cells were isolated from the tumor samples via a tumor dissociation kit (Cat. No. 130-096-730; Miltenyi Biotechnology). An equal number of cells were incubated with FcBlock (Cat. No. 553142, BD Biosciences) for 5 min to prevent nonspecific IgG binding and then stained with appropriate antibodies to identify the populations of CRT-positive tumor cells (CD45^−CRT^+), mature DCs, CTLs, and regulatory T cells. As in the coculture study, HMGB1 and HSP70 in the tumor supernatants were assessed by western blot, while IL-18, IL-1β, TNF-α, IFN-γ, and IL-10 were measured via ELISA kits.

Cat-E = target: T5, Cat-E (Homo sapiens, UniProt P14091); test: Enzymatic cleavage by Cat-E; type: biochemical; conditions: pH 5.5 MES buffer, 37 °C, LC/MS
T5 construct: purchased R&D Systems 1294-AS
T5 sequence (P14091 54-396): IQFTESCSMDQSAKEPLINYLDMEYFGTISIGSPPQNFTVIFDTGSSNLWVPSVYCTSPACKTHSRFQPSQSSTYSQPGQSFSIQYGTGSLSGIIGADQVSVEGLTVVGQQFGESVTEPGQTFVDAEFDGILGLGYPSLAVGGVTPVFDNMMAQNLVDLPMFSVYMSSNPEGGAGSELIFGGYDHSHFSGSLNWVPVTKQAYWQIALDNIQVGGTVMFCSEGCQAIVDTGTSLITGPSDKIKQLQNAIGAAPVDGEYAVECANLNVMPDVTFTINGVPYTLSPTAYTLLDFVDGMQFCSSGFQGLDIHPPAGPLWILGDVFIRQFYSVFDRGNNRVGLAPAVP
Experimental: as §1, with “The cleavage rate of each sample was calculated by comparing the peak area to that of an equivalent amount of NanoTAC prior to enzyme incubation. The” for “The”

Cat-B = target: T6, Cat-B (Homo sapiens, UniProt P07858); test: Enzymatic cleavage by Cat-B (LC/MS, HPLC); type: biochemical; conditions: pH 5.5 MES buffer, 37 °C
T6 construct: purchased R&D systems 953CY
Experimental: as §1

Cat-D = target: T7, Cat-D (Homo sapiens, UniProt P07339); test: Enzymatic cleavage by Cat-D; type: biochemical; conditions: pH 5.5 MES buffer, 37 °C, LC/MS
T7 construct: purchased R&D Systems 1014-AS
Experimental: as §1, with “The cleavage rate of each sample was calculated by comparing the peak area to that of an equivalent amount of NanoTAC prior to enzyme incubation. The” for “The”

[7] = set-up: method as in doi:10.1016/j.dyepig.2020.108598; conditions: reference value used for calculation; cited from earlier work

T2 sequence (P07711 114-333): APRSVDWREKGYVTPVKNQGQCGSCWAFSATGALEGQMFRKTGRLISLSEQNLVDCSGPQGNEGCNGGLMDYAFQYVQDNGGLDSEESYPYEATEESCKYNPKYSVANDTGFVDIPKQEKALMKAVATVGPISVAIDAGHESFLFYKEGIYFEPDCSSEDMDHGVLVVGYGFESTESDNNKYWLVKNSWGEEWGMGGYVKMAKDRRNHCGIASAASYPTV
T4 sequence (P14780 94-707): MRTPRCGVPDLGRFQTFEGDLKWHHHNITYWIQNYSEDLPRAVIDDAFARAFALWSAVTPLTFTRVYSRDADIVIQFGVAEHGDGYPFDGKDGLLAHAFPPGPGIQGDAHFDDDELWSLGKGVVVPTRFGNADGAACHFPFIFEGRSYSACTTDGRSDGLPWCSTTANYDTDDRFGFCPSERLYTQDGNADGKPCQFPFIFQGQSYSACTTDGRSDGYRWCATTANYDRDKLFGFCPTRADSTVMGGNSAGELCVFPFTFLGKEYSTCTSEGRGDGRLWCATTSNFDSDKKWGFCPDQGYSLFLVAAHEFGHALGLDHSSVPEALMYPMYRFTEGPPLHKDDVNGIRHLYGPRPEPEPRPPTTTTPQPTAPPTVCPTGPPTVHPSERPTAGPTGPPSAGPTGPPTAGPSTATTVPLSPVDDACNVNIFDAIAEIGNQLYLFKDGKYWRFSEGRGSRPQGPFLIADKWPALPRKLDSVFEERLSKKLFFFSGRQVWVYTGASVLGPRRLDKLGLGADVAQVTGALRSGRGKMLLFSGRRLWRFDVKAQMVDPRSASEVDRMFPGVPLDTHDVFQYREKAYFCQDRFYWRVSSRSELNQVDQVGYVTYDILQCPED
T7 sequence (P07339 65-412): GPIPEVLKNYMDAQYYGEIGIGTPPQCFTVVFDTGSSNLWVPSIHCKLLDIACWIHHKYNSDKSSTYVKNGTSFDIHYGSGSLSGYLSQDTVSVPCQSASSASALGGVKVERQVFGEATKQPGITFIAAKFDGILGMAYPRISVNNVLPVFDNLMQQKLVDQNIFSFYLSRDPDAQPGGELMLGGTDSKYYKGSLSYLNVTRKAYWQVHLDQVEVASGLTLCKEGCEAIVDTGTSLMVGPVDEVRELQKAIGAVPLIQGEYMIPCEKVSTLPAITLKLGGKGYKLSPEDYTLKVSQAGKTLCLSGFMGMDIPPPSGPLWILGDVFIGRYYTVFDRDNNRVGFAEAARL

## O=C(O)c1nn(Cc2ccc(Cl)cc2Cl)c2ccccc12 [lonidamine, reference compound]
HK2
  time-dependent HK2 expression after washout: initial reduction in the intracellular HK2 level followed by eventual regeneration

## VPF-KRRPIYPALAK-lonidamine [NanoTAC, supramolecular self-assembly of drug conjugates: HK2-targeting PROTAC, cathepsin B-cleavable peptide KRR and photosensitizer verteporfin]
[1]
  ROS quantum yield (Φ): ≈ 0.7823
HK2; 4T1 cells, 1 μM, 12 h, anti-HK2 staining, CLSM
  intracellular HK2 level after treatment: significantly decreased intracellular HK2 levels
HK2
  time-dependent HK2 expression after washout: sustained degradation of the target protein
Cat-L
  cleavage by Cat-L: no cleavage behavior
Rechallenged 4T1 TNBC
  serum IFN-γ, fold of NanoTAC (+L)-treated CR mice over naive mice: 1.33 fold
  serum IL-6, fold of NanoTAC (+L)-treated CR mice over naive mice: 1.32 fold
  serum TNF-α, fold of NanoTAC (+L)-treated CR mice over naive mice: 1.4 fold
[2]; +L, n = 5, log-rank test
  survival of TNBC mice: significantly prolonged survival
[2]; +L (200 mW, 15 min)
  complete regression (CR), mice with CR / mice in group: 3/5
[2]; −L
  complete regression (CR), mice with CR / mice in group: 0/5
4T1 cells [3]
  migratory and invasive phenotypes: reduced migratory and invasive phenotypes
4T1 cells [4]
  reduction of ROS production under hypoxia compared with normoxia: 36.1%
caspase-3 (CASP3)
  cleavage by CASP3: no cleavage behavior
[5]
  cleavage by MMP-9: no cleavage behavior
[6]
  intratumoral Treg population, NanoTAC (+L) relative to NanoTAC (−L): 72.01%
  intratumoral Treg population, NanoTAC (+L) relative to VPF (+L): 44.81%
Cat-E
  cleavage by Cat-E: no cleavage behavior
Cat-B; Cat-B with Z-FA-FMK, LC/MS
  cleavage in presence of Cat-B with irreversible cysteine protease inhibitor: no detectable cleavage
Cat-B; NanoTAC 5-80 μM, 5 μg Cat-B, HPLC
  catalytic efficiency (kcat/KM): 27,898 M^−1S^−1
Cat-B; LC/MS
  time for conversion into PROTAC and lysine-conjugated VPF (K-VPF) with Cat-B: ≤ 1 h
Cat-D
  cleavage by Cat-D: no cleavage behavior

## verteporfin [VPF, reference compound]
[2]; +L (200 mW, 15 min)
  complete regression (CR), mice with CR / mice in group: 0/5
4T1 cells [4]
  reduction of ROS production under hypoxia compared with normoxia: 79.1%
[7]
  ROS quantum yield (Φ): 0.78
